Converted amounts (≈) assume the structure as drawn. Where two headings read alike, the source gives them in different places.
Assays:
human plasma = experiment: prothrombin time (PT) clotting test; format: biochemical; conditions: inhibitor concentration which brought about a doubling of the PT clotting time, Innovin (recombinant human tissue factor)
Experimental: The activity of the low molecular weight substances can, moreover, be characterized in the “prothrombi” time” (PT) clotting test. The substances are prepared as a 10 mM solution in DMSO or DMSO/0.1M HCl (DHCl) and thereafter made up to the desired dilution in the same solvent. Thereafter, 0.25 ml of human plasma (obtained from whole blood anticoagulated with 1/10 volume of 108 mM Na citrate) was placed in the instrument-specific sample container. In each case 5 μl of each dilution of the substance-dilution series was then mixed with the plasma provided. This plasma/inhibitor mixture was incubated at 37° C. for 2 minutes. Thereafter, there were pipetted to the semi-automatic device (ACL, Automated Coagulation Laboratory (Instrument Laboratory)) 50 μl of plasma/inhibitor mixture in the measurement container. The clotting reaction was initiated by the addition of 0.1 ml of Innovin® (recombinant human tissue factor combined with calcium buffer and synthetic phospholipids(Dade Behring®, Inc.). The time up to the fibrin cross-linking was determined photooptically from the ACL. The inhibitor concentration, which brought about a doubling of the PT clotting time, was determined by means of a graph.

[1] = Solubility (phosphate buffer); format: physicochemical

Row | SMILES | melting point [°C] | concentration doubling PT clotting time (human plasma) [µM] | solubility ([1]; aqueous buffer, pH 5 (stated in the cell), read-out: Solubility (phosphate buffer, pH 5)) [µg/mL] | solubility ([1]; pH 6.5, aqueous buffer, read-out: Solubility (phosphate buffer, pH 6.5)) [µg/mL] | Solubility (phosphate buffer, pH 6.5) ([1]; pH 6.5) [mg/ml]
1 | CCOc1cc(OCC2CCN(C)CC2)c(F)c(C(Nc2ccc(C(=N)N)cc2)C(=O)O)c1 (racemic) [Example 6.3, (RS)-(4-carbamimidoyl-phenylamino)-[5-ethoxy-2-fluoro-3-(1-methyl-piperidin-4-ylmethoxy)-phenyl]-acetic acid] | 232 | – | – | – | –
2 | CCOc1cc(OC2CCN(C)CC2)c(F)c(C(Nc2ccc(C(=N)N)cc2)C(=O)O)c1 (racemic) [Example 13.3, (RS)-(4-carbamimidoyl-phenylamino)-[5-ethoxy-2-fluoro-3-(1-methyl-piperidin-4-yloxy)-phenyl]-acetic acid] | – | 3.6 | 3300 (≈ 7.42 mM) | – | –
3 | CCOc1cc(OC2CCN(C)CC2)c(F)c([C@@H](Nc2ccc(C(=N)N)cc2)C(=O)O)c1 [Example 13.8, (R)-(4-carbamimidoyl-phenylamino)-[5-ethoxy-2-fluoro-3-(1-methyl-piperidin-4-yloxy)-phenyl]-acetic acid] | – | 1.6 | – | 5700 (≈ 12.8 mM) | –
4 | CCOc1cc(O[C@@H]2CCCN(C)C2)c(F)c([C@@H](Nc2ccc(C(=N)N)cc2)C(=O)O)c1 (racemic) [Example 2.3, (RS)- and (SR)-(4-carbamimidoyl-phenylamino)-[5-ethoxy-2-fluoro-3-[(RS)-1-methyl-piperidin-3-yloxy]-phenyl]-acetic acid] | – | 2.1 | – | – | 2.2

Source: patent US6642386B2, “N-(4-carbamimidoyl-phenyl)-glycine derivatives” (Hoffmann-La Roche Inc., priority 2002, dated 2003)
